Reference: patent US20140235592A1, “SUBSTITUTED 6-METHOXY-4-AMINO-N-PHENYL-2-NAPHTAMIDES AS SPHINGOSINE RECEPTOR MODULATORS” (Allergan, Inc., priority 2013, published 2014)

Each compound was assayed against T1, human S1P1 receptor (Homo sapiens, UniProt P21453) (assay: GTP γ35S binding assay for S1P1 activity). Conditions: membranes of cells stably expressing the S1P1 receptor, test concentrations 0.08 to 5,000 nM.
T1 construct: expressed in transfected cells; membranes used
T1 sequence (P21453 whole entry): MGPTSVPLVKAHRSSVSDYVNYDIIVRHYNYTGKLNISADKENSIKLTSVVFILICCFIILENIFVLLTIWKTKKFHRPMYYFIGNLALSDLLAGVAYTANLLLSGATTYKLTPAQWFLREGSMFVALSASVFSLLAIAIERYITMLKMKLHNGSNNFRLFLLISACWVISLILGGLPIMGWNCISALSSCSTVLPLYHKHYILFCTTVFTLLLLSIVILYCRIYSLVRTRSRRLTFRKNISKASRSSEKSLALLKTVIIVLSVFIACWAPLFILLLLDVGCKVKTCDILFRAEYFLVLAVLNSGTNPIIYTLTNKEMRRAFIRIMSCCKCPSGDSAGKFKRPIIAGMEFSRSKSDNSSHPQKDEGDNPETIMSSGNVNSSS
Assay type: biochemical
Description: Compounds were tested for S1 P1 activity using the GTP γ^35S binding assay. These compounds may be assessed for their ability to activate or block activation of the human S1 P1 receptor in cells stably expressing the S1 P1 receptor. GTP γ^35S binding was measured in the medium containing (mM) HEPES 25, pH 7.4, MgCl2 10, NaCl 100, dithiothreitol 0.5, digitonin 0.003%, 0.2 nM GTP γ^355, and 5 μg membrane protein in a volume of 150 μl. Test compounds were included in the concentration range from 0.08 to 5,000 nM unless indicated otherwise. Membranes were incubated with 100 μM 5′-adenylylimmidodiphosphate for 30 min, and subsequently with 10 μM GDP for 10 min on ice. Drug solutions and membrane were mixed, and then reactions were initiated by adding GTP γ^35S and continued for 30 min at 25° C. Reaction mixtures were filtered over Whatman GF/B filters under vacuum, and washed three times with 3 mL of ice-cold buffer (HEPES 25, pH7.4, MgCl2 10 and NaCl 100). Filters were dried and mixed with scintillant, and counted for ^35S activity using a β-counter. Agonist-induced GTP γ^355 binding was obtained by subtracting that in the absence of agonist. Binding data were analyzed using a non-linear regression method. In case of antagonist assay, the reaction mixture contained 10 nM S1P in the presence of test antagonist at concentrations ranging from 0.08 to 5000 nM.
Compound `COc1ccc2cc(C(=O)Nc3ccc(CNCCCP(=O)(O)O)cc3)cc(N(C)CC3CC3)c2c1` [Compound 3, [3-({4-[({4-[(cyclopropylmethyl)(methyl)amino]-6-methoxynaphthalen-2-yl}carbonyl)amino]benzyl}amino)propyl]phosphonic acid] has an EC50 of 138 nM. For `CCN(CC1CC1)c1cc(C(=O)Nc2ccc(CNCCCP(=O)(O)O)cc2)cc2ccc(OC)cc12` [Compound 5, [3-({4-[({4-[(cyclopropylmethyl)(ethyl)amino]-6-methoxynaphthalen-2-yl}carbonyl)amino]benzyl}amino)propyl]phosphonic acid], the EC50 was 401 nM. `CCN(CC)c1cc(C(=O)Nc2ccc(CNCCCP(=O)(O)O)cc2)cc2ccc(OC)cc12` [Compound 7, (3-{[4-({[4-(diethylamino)-6-methoxynaphthalen-2-yl]carbonyl}amino)benzyl]amino}propyl)phosphonic acid] was tested, and the EC50 was 95 nM. With `CCCN(C)c1cc(C(=O)Nc2ccc(CNCCCP(=O)(O)O)cc2)cc2ccc(OC)cc12` [Compound 8, [3-({4-[({6-methoxy-4-[methyl(propyl)amino]naphthalen-2-yl}carbonyl)amino]benzyl}amino)propyl]phosphonic acid] the EC50 was 160 nM. Work on `COc1ccc2cc(C(=O)Nc3ccc(CNCCCP(=O)(O)O)cc3)cc(N(C)C)c2c1` [Compound 9, (3-{[4-({[4-(dimethylamino)-6-methoxynaphthalen-2-yl]carbonyl}amino)benzyl]amino}propyl)phosphonic acid] yielded an EC50 of 494 nM.
